Measured values reported in ChEMBL document CHEMBL1127909, “Tyrosinase inhibitory flavonoids fromheterotheca inuloides and their structural functions” (Bioorg Med Chem Lett, 1994).
Converted amounts (≈) assume the structure as drawn.

What was measured:
[1] = test system: Tyrosinase (Agaricus bisporus); test: Dose required for inhibitory activity against oxidation of L-DOPA by mushroom tyrosinase
[2] = biological target: T1, Tyrosinase (Homo sapiens) (UniProt P14679); test: Percent inhibition of mushroom tyrosinase at concentration of 18 ug/ml
T1 sequence (whole entry): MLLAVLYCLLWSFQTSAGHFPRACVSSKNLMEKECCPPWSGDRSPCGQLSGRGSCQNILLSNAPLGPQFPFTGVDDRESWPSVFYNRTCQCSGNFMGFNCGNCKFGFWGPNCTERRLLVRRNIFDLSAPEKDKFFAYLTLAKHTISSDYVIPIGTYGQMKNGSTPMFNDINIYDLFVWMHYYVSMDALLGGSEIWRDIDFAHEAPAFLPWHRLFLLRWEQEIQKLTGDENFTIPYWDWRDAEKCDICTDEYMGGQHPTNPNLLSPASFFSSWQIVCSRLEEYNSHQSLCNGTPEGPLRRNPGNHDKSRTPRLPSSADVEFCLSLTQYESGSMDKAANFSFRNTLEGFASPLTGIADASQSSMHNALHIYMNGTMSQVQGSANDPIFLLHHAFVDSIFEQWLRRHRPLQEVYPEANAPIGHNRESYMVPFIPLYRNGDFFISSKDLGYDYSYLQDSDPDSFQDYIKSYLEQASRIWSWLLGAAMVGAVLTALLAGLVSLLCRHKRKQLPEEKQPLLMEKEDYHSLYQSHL

[3] = biological target: T1, Tyrosinase (Homo sapiens); test: Percent inhibition of mushroom tyrosinase at concentration of 45 ug/ml

SMILES	ID50 [1] [µg/mL]	inhibition [2] [%]	inhibition [3] [%]
O=C(/C=C/c1ccc(O)cc1)OC[C@@H]1O[C@H](Oc2cc(O)c3c(=O)c(O)c(-c4ccc(O)cc4)oc3c2)[C@@H](O)[C@H](O)[C@H]1O	0.39 (≈ 0.656 µM)	–	–
O=c1c(O)c(-c2ccc(O)c(O)c2)oc2cc(O)cc(O)c12	–	40	80
COc1cc(-c2oc3cc(O[C@H]4O[C@@H](COC(=O)/C=C/c5ccc(O)cc5)[C@H](O)[C@@H](O)[C@@H]4O)cc(O)c3c(=O)c2O)ccc1O	0.44 (≈ 0.705 µM)	–	–
